# Bridge positions count the residues as written; N and C are the ends. Peptide text beside a SMILES is read from it.
# Experiments:
# human Kv1.1 = human Kv1.1 (Homo sapiens, UniProt Q09470); assay: cell-based; design: expressed in transfected cells; host or cells: HEK293
# human Kv1.1 (HEK293) = molecular target: T1, human Kv1.1 (HEK293) (Homo sapiens, UniProt Q09470); assay: cell-based
# T1 construct: expressed in transfected cells; host or cells: HEK293
# human Kv1.3 (CHO) = molecular target: T2, human Kv1.3 (CHO) (Homo sapiens, UniProt P22001); assay: cell-based
# T2 construct: expressed in transfected cells; host or cells: CHO
# T2 sequence (P22001 whole entry): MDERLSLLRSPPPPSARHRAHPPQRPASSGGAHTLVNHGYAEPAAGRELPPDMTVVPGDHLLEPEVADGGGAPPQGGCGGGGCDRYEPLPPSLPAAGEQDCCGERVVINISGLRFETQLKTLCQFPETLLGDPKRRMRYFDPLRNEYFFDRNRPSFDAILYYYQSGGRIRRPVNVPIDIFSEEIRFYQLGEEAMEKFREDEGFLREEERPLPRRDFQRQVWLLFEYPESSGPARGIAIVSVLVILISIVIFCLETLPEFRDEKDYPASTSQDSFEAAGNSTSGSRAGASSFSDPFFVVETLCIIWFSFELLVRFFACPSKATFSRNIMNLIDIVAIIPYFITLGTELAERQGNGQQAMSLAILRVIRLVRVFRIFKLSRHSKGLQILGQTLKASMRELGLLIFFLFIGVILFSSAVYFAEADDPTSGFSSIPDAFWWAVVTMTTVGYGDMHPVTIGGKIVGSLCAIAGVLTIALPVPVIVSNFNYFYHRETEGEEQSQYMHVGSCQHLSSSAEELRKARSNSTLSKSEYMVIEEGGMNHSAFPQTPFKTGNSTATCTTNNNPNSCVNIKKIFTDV
# human Kv1.3 channel = human Kv1.3 channel (Homo sapiens, UniProt P22001); assay: cell-based; assay type: cell-based
# human Kv1.3 channel, sequence (P22001 whole entry): as above
# [1] = cited from earlier work
# [2] = rat, in vivo, iv, 1 mg/kg
# [3] = molecular target: human Kv1.3 voltage-gated potassium channel (human) (UniProt P22001); assay: cell-based or functional assay
# human Kv1.3 voltage-gated potassium channel (human), sequence (P22001 whole entry): as above
# [4] = molecular target: human Kv1.1 voltage-gated potassium channel (human) (UniProt Q09470); assay: cell-based or functional assay
# human Kv1.1 voltage-gated potassium channel (human), sequence (Q09470 whole entry): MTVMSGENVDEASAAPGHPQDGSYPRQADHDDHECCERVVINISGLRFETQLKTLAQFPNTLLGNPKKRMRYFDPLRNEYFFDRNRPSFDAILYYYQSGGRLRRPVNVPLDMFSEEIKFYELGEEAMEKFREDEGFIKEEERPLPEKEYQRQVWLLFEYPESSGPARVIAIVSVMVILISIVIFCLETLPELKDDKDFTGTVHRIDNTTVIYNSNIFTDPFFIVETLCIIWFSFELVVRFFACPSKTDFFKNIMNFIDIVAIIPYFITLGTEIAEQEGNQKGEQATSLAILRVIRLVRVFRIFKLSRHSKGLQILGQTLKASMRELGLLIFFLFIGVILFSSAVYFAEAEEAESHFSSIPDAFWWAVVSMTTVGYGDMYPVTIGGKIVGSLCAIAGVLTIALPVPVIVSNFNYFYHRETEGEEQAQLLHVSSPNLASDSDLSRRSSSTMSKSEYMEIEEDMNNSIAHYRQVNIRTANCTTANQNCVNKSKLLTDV
# OSK1 (native Orthochirus scrobiculosus toxin peptide), sequence (P55896 whole entry): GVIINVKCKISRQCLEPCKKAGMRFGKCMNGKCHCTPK
# human Kv1.1, sequence (Q09470 whole entry): as the sequence (Q09470 whole entry) above
# T1 sequence (Q09470 whole entry): as above
molecule,measurement,setting,value
"CC[C@H](C)[C@@H]1NC(=O)[C@H](CCCCN)NC(=O)[C@@H](NC(=O)[C@H](CCCCN)NC(=O)[C@@H](NC(=O)[C@H](CC(N)=O)NC(=O)[C@@H](NC(=O)[C@@H](NC(=O)[C@@H](NC(=O)CN)C(C)C)[C@@H](C)CC)[C@@H](C)CC)C(C)C)CSSC[C@@H]2NC(=O)[C@H](C)NC(=O)CNC(=O)[C@H](Cc3ccccc3)NC(=O)[C@H](CCCNC(=N)N)NC(=O)[C@H](CCSC)NC(=O)CNC(=O)[C@H](C)NC(=O)[C@H](CCCCN)NC(=O)[C@H](CCCCN)NC(=O)[C@@H]3CSSC[C@@H](C(=O)N[C@H](C(=O)N4CCC[C@H]4C(=O)N[C@@H](CCCCN)C(=O)O)[C@@H](C)O)NC(=O)[C@H](Cc4c[nH]cn4)NC(=O)[C@H](CSSC[C@H](NC(=O)[C@H](CCC(N)=O)NC(=O)[C@H](CCCNC(=N)N)NC(=O)[C@H](CO)NC1=O)C(=O)N[C@@H](CC(C)C)C(=O)N[C@@H](CCC(=O)O)C(=O)N1CCC[C@H]1C(=O)N3)NC(=O)[C@H](CCCCN)NC(=O)CNC(=O)[C@H](CC(N)=O)NC(=O)[C@H](CCSC)NC2=O [K27A] (H-GVIINVKCKISRQCLEPCKKAGMRFGACMNGKCHCTPK-OH; disulfide 8-28, 14-33, 18-35)",IC50,human Kv1.1,10.1 nM
same,IC50,human Kv1.1 (HEK293),> 3 nM
same,IC50,human Kv1.3 (CHO),0.232 nM
same,IC50,human Kv1.3 channel,0.289 nM
CC[C@H](C)[C@@H]1NC(=O)[C@@H](NC(=O)[C@H](CO)NC(=O)[C@@H](N)CCCNC(=N)N)CSSC[C@@H](C(=O)O)NC(=O)[C@H]([C@@H](C)O)NC(=O)CNC(=O)[C@@H]2CSSC[C@@H]3NC(=O)[C@H](CCC(N)=O)NC(=O)[C@H](Cc4ccccc4)NC(=O)[C@H](C)NC(=O)[C@H]([C@@H](C)O)NC(=O)[C@H](CSSC[C@H](NC(=O)[C@H](Cc4ccccc4)NC(=O)[C@H](CO)NC(=O)[C@H](CC(C)C)NC(=O)[C@H](CCCNC(=N)N)NC(=O)[C@H](Cc4ccc(O)cc4)NC(=O)[C@H](CCCCN)NC(=O)[C@H](CCSC)NC(=O)[C@H](CO)NC(=O)[C@H](Cc4cnc[nH]4)NC(=O)[C@H](CCCCN)NC3=O)C(=O)N[C@@H](CCCNC(=N)N)C(=O)N[C@@H](CCCCN)C(=O)N[C@@H]([C@@H](C)O)C(=O)N2)NC(=O)[C@H](CCCNC(=N)N)NC(=O)[C@H](CO)NC(=O)[C@H](CCCCN)NC(=O)[C@@H]2CCCN2C(=O)[C@H]([C@@H](C)CC)NC(=O)[C@H]([C@@H](C)O)NC(=O)[C@H](CC(=O)O)NC1=O [ShK[1-35]],half-life in vivo,[1],~20 min
same,half-life of the native ShK molecule,[1]; in vivo,approximately 0.33 hour
same,duration of significant suppression of Kv1.3 current (<70 POC) by 5% serum Test solutions,[2],≤ 1 h
OSK1 (native Orthochirus scrobiculosus toxin peptide),"Kv1.3 (IC50, pM), whole cell patch clamp ePhys",[3],39 pM
same,Kv1.3 Selectivity (=Kv1.1/Kv.3 IC50),[3],5
same,"Kv1.1 (IC50, pM), whole cell patch clamp ePhys",[4],202 pM

# Source: patent publication US20090299044A1 (priority 2006, published 2009)
